Experimental findings from article PMC4050194 (FEBS Open Bio, 2014) are described below.

Structures are written as SMILES.

The experiment deals with T1, Cra (FruR) protein of Pseudomonas putida (Cra^PP) (Pseudomonas putida, UniProt Q88PQ6).
T1 sequence (Q88PQ6 1-331): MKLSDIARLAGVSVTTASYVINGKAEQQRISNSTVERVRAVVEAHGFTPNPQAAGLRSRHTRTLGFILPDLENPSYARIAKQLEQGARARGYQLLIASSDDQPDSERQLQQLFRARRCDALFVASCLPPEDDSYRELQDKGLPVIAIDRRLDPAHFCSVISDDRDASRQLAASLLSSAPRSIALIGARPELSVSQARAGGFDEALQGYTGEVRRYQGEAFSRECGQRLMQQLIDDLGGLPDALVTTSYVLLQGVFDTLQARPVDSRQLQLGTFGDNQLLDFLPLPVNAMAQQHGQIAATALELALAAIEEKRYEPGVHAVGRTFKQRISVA
Nature of the experiment: ITC with purified Cra. Format: binding.

With `O=P(O)(O)OCC1(O)O[C@H](CO)[C@@H](O)[C@@H]1O` (stereo partly shown) [F1P, fructose 1-phosphate], the Kd was around 200 nM.

As usually defined, the Kd is the free concentration of one partner at which half of the binding sites on the other are occupied at equilibrium, for simple one-to-one binding. A low value points to tighter binding.
